These results are taken from US5663205A, “Pharmaceutical composition for use in glaucoma treatment” (Senju Pharmaceutical Co. Ltd., priority 1992, dated 1997).

Structures can show the parent of a compound that is named as a salt. Where two headings read alike, the source gives them in different places.

Series [1] is described as follows: Test Example 7 (1): acute toxicity test in mice. The settings on record: mouse, in vivo, read-out: 50% lethal dose (LD50). The method, then: (1) Acute toxicity test of amosulalol hydrochloride with mice:
Investigation was conducted on the acute toxicity of amosulalol hydrochloride in mice through oral administration or intravenous administration.
Amosulalol was given to 7-weeks aged ICR mice by oral administration by use of an oral probe or through a tail vein.

In series [2] the test system is choroidal blood flow. The settings on record: cited from earlier work.
Series [3] relates to Normal Intraocular Pressure. The series is described as follows: Test Example 2 (1): intraocular pressure reducing activity on normal intraocular pressure, pigmented rabbits. The settings on record: 0.5% ophthalmic solution, treated eyes, 30 min and 1 hour after topical application. Format: in vivo, pigmented rabbits (Dutch belted rabbits). Here is the method: Intraocular Pressure Reducing Activity of Amosulalol Hydrochloride on Normal Intraocular Pressure in Pigmented Rabbits Forty (40) male pigmented rabbits (Dutch belted rabbits) weighing about 2 kg, after having been confirmed to be free from ocular abnormalities, were bred in a breeding room maintained at a temperature of 24± 4° C. and at a relative humidity of 55± 15%, while they were fed solid food (Labo RG-RO, manufactured by Nihon Nohsan Kogyo K.K.) at a daily rate of 100 g per rabbit and allowed free access to tap water as drinking water. As a test drug, amosulalol hydrochloride was processed into 0.05%, 0.5% and 1.0% aqueous solutions which were used in the test, and 0.5% timolol maleate ophthalmic solution [Timoptol (registered trademark): Ban-yu Pharmaceutical Co.] and physiological saline were used as a positive control drug and a control substance, respectively. (1) Measurement of intraocular pressure: Forty (40) rabbits were divided into five groups. each consisting of 8 heads, and 50 μl of test drug as well as the control drug and physiological saline were applied topically to one eye each of the individual rabbits, with the other being left untreated. Before instillation and 0.5, 1, 2, 3, 4, 6 and 8 hours after topical application respectively, intraocular pressure for both eyes of each rabbit was measured using PTG. Time-course changes of intraocular pressure measurements taken with the eyes treated by instillation of each of the test drugs, control drug and physiological saline, are illustrated in FIGS. 2 (for treated eyes) and 3 (for non-treated eyes), respectively, with time (hour) after instillation taken as abscissa and intraocular pressure (mmHg) as ordinate; each value in mean ± S.E. (the number in each case is 8). The signs "a", "b", "c", "d" and "e" designate physiological saline, 0.05% aqueous solution of amosulalol hydrochloride, 0.5% aqueous solution of amosulalol hydrochloride, 1.0% aqueous solution of amosulalol hydrochloride and 0.5% solution of timolol maleate, respectively.

For series [4], the system named is Normal Intraocular Pressure. Put plainly: Test Example 1 (1): intraocular pressure reducing activity on normal intraocular pressure, pigmented rabbits. Format: in vivo, pigmented rabbits (Dutch belted rabbits). The settings on record: 0.5% ophthalmic solution, 30 min and 1 hour after topical application. The method, then:
Intraocular Pressure Reducing Activity of Amosulalol Hydrochloride on Normal Intraocular Pressure in Pigmented Rabbits Male pigmented rabbits (Dutch belted rabbits) weighing about 2 kg, after having been confirmed to be free from ocular abnormalities; were bred in a breeding room maintained at a temperature of 24± 4° C. and at a relative humidity of 55± 15%, while they were given solid food (Labo RG-RO manufactured by Nihon Nohsan Kogyo K.K.) at a daily rate of 100 g per rabbit and allowed free access to tap water as drinking water. As a test drug, amosulalol hydrochloride was processed into 0.05% (hereinafter, the term "%" is to be understood to designate "w/v %") and 1.0% aqueous solutions which were used in the test, and 0.5% timolol maleate ophthalmic solution [Timoptol (registered trademark): Ban-yu Pharmaceutical Co.] and physiological saline were used as a positive control drug and a control substance, respectively. (1) Measurement of intraocular pressure: Thirty two (32) rabbits were divided into four groups each consisting of 8 rabbits, and 50 μl of test drugs as well as the control drug and physiological saline were applied topically to one eye each of the individual rabbits, with the other being left untreated. Before instillation and 0.5, 1, 2, 3, 4, 6 and 8 hours after topical application,intraocular pressure for both of eyes of each rabbit was measured using a Pneumatonograph (manufactured by Alcon Co. Hereinafter referred to briefly as "PTG"). Shown in FIG. 1 are time-course changes of intraocular pressure taken with the eyes treated by instillation of each of the test drugs, control drug and physiological saline, with time (hour) after instillation taken as abscissa and intraocular pressure (mmHg as ordinate; each value in mean±S.E. (number of cases is 8). The signs "a", "b", "d" and "e" designate physiological saline, 0.05% aqueous solution of amosulalol hydrochloride, 1.0% aqueous solution of amosulalol hydrochloride, and 0.5% ophthalmic solution of timolol maleate, respectively.

One may read the LD50 as the dose at which mortality reaches 50%. As for `COc1ccccc1OCCNCC(O)c1ccc(C)c(S(N)(=O)=O)c1` (stereo not shown) [Amosulalol, 5-[1-hydroxy-2-[2-(2-methoxyphenoxy)ethylamino]ethyl]-2-methylbenzenesulfonamide], the LD50 in series [1] (iv, intravenous (tail vein), female mice) came to 134 mg/kg; in series [1] (iv, intravenous (tail vein), male mice), 104 mg/kg; in series [1] (po, female mice), 5700 mg/kg; in series [1] (po, male mice), 6500 mg/kg.
`CCCC(=O)N1CCCN(c2nc(N)c3cc(OC)c(OC)cc3n2)CC1` [bunazosin hydrochloride]: in series [2], the choroidal blood flow entry is “can increase choroidal blood flow”.
On to `CC(C)(C)NC[C@H](O)COc1nsnc1N1CCOCC1` [timolol maleate, reference compound], for which the “drop in intraocular pressure” value in series [3] and in series [4] was 2.4 mmHg each time.
